# From patent publication US10947216B2, “Amide compounds and method for making and using” (Rigel Pharmaceuticals, Inc., priority 2016, dated 2021)
# pEC50: −log10 of the molar value.
# Tests used:
# IL-23 (p19/p40) = assay: IL23-p19 ELISA, dendritic cells (DC differentiated from human PBMC, IFNγ primed), LPS stimulated; assay type: cell-based; conditions: Dendritic cell, human PBMC-derived dendritic cells, 1 h compound pre-incubation, LPS 1 μg/ml 18 hours, 10 pt
# Protocol: Compound Screening Using DC Cells
# I. Differentiation of PBMC's to DC Cells:
# After 2 hours, the media including floating cells was aspirated out carefully and 12 ml of fresh RPMI media (10% FBS) containing GMCSF (100 ng/ml) and IL4 (20 ng/ml) was added, and the flask was kept in a 37° C. incubator for 7 days.
# After 3 days, fresh GMCSF (100 ng/ml) and IL4 (20 ng/ml) were added to the flask and the incubation continued. After 7 days, the fully differentiated cells were harvested by spinning down (1200 rpm/5 min) and aspirating the media. The cells were suspended in fresh RPMI media (10% FBS) containing 50 ng/ml IFNγ (1000 U/ml) and then plated (50K/well in 100 μl) onto a white clear bottom 96 well plate and left in a 37° C. incubator for 24 hours.
# II. Addition of Compounds:
# After 24 hours incubation, 100 μl of RPMI media was added containing 2× concentrated test compound per well to the above cell-culture media (final concentration becomes 1×) and the plates were pre-incubated for 1 hour at 37° C. before stimulating with LPS.
# The mixture was shaken and incubated the plates at 37° C. for an additional 18 hours.
# 155 μl of the supernatant was harvested from each well carefully (without the tip touching the bottom of the well) and to the remaining 50 μl/well of the cell culture plate was added 50 μl of Cell Titer Glo reagent. The mixture was incubated for 1-2 minutes on a shaker and the plate was read for luminescence intensity to determine the compound cytotoxicity. The cell culture supernatant collected above was used to carry out IL23 ELISA (65 μl—Supernatant) and IL10 ELISA (90 μl—Supernatant) as described below.
# Human IL-23 (p19/p40) ELISA Protocol (e-Biosciences)
# To 10.5 ml PBS add 50 μl of anti-IL23 (p19) was added capture antibody (2.5 μg/ml). The mixture was mixed well and 100 μl of the coating solution was added to each well of the 96 well white plates from Pierce. The wells were covered and incubated overnight at 4° C.
# The anti-IL23 (p19)-antibody-coated plates were washed 2× using TBST (use plate washer) and blocked using 200 μl of 0.5% Casein for 1.5-2 hours at room temperature with shaking.
# Addition of Supernatant and Detection:
# The plates were washed 2× using TBST and the supernatant was transferred (65 μl/well) to the above pre-blocked/IL23(p19)-antibody-coated 96 well plate, and incubated at room temperature for 1.5 hours with shaking.
# The plates were washed 4× using TBST (plate washer) and 100 μl/well detection antibody solution prepared from 2 μl of biotin labeled anti-IL-12 (p40/p70) antibody in 11 ml 1% BSA/PBS solution (1-5000 dilution) was added. The plates were incubated for 1 hour with shaking at Room temperature.
# Again, the plates were washed 4× with TBST and 100 μl of HRP labeled Streptavidin (R&D Systems) solution (10 μl/10 ml 1% BSA solution) was added, and the plates were incubated at room temperature for another 45 minutes with shaking.
# After 45 minutes, the plates were washed with TBST 4× and 100 μl/well Super Signal ELISA Pico Chemiluminescent Substrate from Pierce (3.5 ml A+3.5 ml B+3.5 ml MQ water) was added. The plates were shaken for 1-2 minutes then read on a plate reader.
# IL-23p19 = assay: LPS Induced IL23p19 in THP-1 Cells (with IFNγ Primed) Assay; assay type: cell-based, human; conditions: Homo sapiens, THP-1, THP-1 cells, IFNγ (50 ng/mL) primed, 1 hour compound pre-incubation, LPS 1 ug/mL 18 hours, 10 pt; read-out: IL23-p19 ELISA, THP1-IFNy, LPS, 10 pt EC50
# Procedure, shortened: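 THP-1 cells (50K/well) primed ~18 h with IFNγ (50 ng/mL) in RPMI/10% FBS, then incubated with compound in duplicate for 18 h at 37° C. Supernatant IL-23p19 measured by chemiluminescent sandwich ELISA, giving EC50 by curve fitting. Toxicity assessed in parallel on the remaining cells by Cell Titer Glo.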
SMILES,pEC50 (IL-23 (p19/p40)),pEC50 (IL-23p19)
"COc1ccc(-c2nn(C)cc2NC(=O)c2cccc(-c3ccn[nH]3)n2)nc1 [Compound I-67, N-(3-(5-methoxypyridin-2-yl)-1-methyl-1H-pyrazol-4-yl)-6-(1H-pyrazol-5-yl)picolinamide]",5.57,6.32
"COc1ccc(-c2nn(C)cc2NC(=O)c2cccc(-c3cn[nH]c3)n2)nc1 [Compound I-68, N-(3-(5-methoxypyridin-2-yl)-1-methyl-1H-pyrazol-4-yl)-6-(1H-pyrazol-4-yl)picolinamide]",5.62,6.54
"COc1ccc(-c2nn(C)cc2NC(=O)c2cccc(-c3cncc(C)c3)n2)nc1 [Compound I-69, N-(3-(5-methoxypyridin-2-yl)-1-methyl-1H-pyrazol-4-yl)-5′-methyl-[2,3′-bipyridine]-6-carboxamide]",5.82,5.92
"COc1ccc(-c2nn(C)cc2NC(=O)c2cccc(-c3cncc(NC(C)C)c3)n2)nc1 [Compound I-71, 5′-(isopropylamino)-N-(3-(5-methoxypyridin-2-yl)-1-methyl-1H-pyrazol-4-yl)-[2,3′-bipyridine]-6-carboxamide]",6.38,6.52
"Cn1cc(NC(=O)c2cccc(-c3cn[nH]c3)n2)c(N2CCCC2)n1 [Compound I-72, N-(1-methyl-3-(pyrrolidin-1-yl)-1H-pyrazol-4-yl)-6-(1H-pyrazol-4-yl)picolinamide]",5.50,5.12
"Cn1cc(NC(=O)c2cccc(-c3cn[nH]c3)n2)c(N2CCCCC2)n1 [Compound I-73, N-(1-methyl-3-(piperidin-1-yl)-1H-pyrazol-4-yl)-6-(1H-pyrazol-4-yl)picolinamide]",5.67,5.75
"Cn1cc(NC(=O)c2cccc(-c3cn[nH]c3)n2)c(N2CCOCC2)n1 [Compound I-74, N-(1-methyl-3-morpholino-1H-pyrazol-4-yl)-6-(1H-pyrazol-4-yl)picolinamide]",5.42,4.73
"Cc1cncc(-c2cccc(C(=O)Nc3cn(C)nc3N3CCCCC3)n2)c1 [Compound I-76, 5′-methyl-N-(1-methyl-3-(piperidin-1-yl)-1H-pyrazol-4-yl)-[2,3′-bipyridine]-6-carboxamide]",5.37,5.71
"Cc1cncc(-c2cccc(C(=O)Nc3cn(C)nc3N3CCOCC3)n2)c1 [Compound I-77, 5′-methyl-N-(1-methyl-3-morpholino-1H-pyrazol-4-yl)-[2,3′-bipyridine]-6-carboxamide]",5.66,4.48
"O=C(Nc1cn(CCN2CCOCC2)nc1-c1ccccn1)c1cccc(-c2cn[nH]c2)n1 [Compound I-83, N-(1-(2-morpholinoethyl)-3-(pyridin-2-yl)-1H-pyrazol-4-yl)-6-(1H-pyrazol-4-yl)picolinamide]",4.08,5.70
"CN1CCN(CCn2cc(NC(=O)c3cccc(-c4cn[nH]c4)n3)c(-c3ccccn3)n2)CC1 [Compound I-86, N-(1-(2-(4-methylpiperazin-1-yl)ethyl)-3-(pyridin-2-yl)-1H-pyrazol-4-yl)-6-(1H-pyrazol-4-yl)picolinamide]",6.39,7.01
"Cc1cncc(-c2cccc(C(=O)Nc3cn(CCN4CCN(C)CC4)nc3-c3ccccn3)n2)c1 [Compound I-87, 5′-methyl-N-(1-(2-(4-methylpiperazin-1-yl)ethyl)-3-(pyridin-2-yl)-1H-pyrazol-4-yl)-[2,3′-bipyridine]-6-carboxamide]",5.70,7.12
"Cn1cc(NC(=O)c2cccc(-c3ccncc3)n2)c(-c2cnccn2)n1 [Compound I-100, N-(1-methyl-3-(pyrazin-2-yl)-1H-pyrazol-4-yl)-[2,4′-bipyridine]-6-carboxamide]",5.01,4.19
"Cn1cc(NC(=O)c2cccc(-c3cccnc3)n2)c(-c2cnccn2)n1 [Compound I-101, N-(1-methyl-3-(pyrazin-2-yl)-1H-pyrazol-4-yl)-[2,3′-bipyridine]-6-carboxamide]",5.74,4.84

# Other lines, results leading:
pEC50 (IL-23 (p19/p40)),pEC50 (IL-23p19),SMILES
4.79,4.14,"Cn1cc(NC(=O)c2cccc(-c3cncc(NS(C)(=O)=O)c3)n2)c(-c2ccccn2)n1 [Compound I-34, N-(1-methyl-3-(pyridin-2-yl)-1H-pyrazol-4-yl)-5′-(methylsulfonamido)-[2,3′-bipyridine]-6-carboxamide]"
6.06,5.95,"CN(C)c1cncc(-c2cccc(C(=O)Nc3cn(C)nc3-c3ccccn3)n2)c1 [Compound I-35, 5′-(dimethylamino)-N-(1-methyl-3-(pyridin-2-yl)-1H-pyrazol-4-yl)-[2,3′-bipyridine]-6-carboxamide]"
6.11,5.37,"Cn1cc(NC(=O)c2cccc(-c3cncc(N4CCCC4)c3)n2)c(-c2ccccn2)n1 [Compound I-36, N-(1-methyl-3-(pyridin-2-yl)-1H-pyrazol-4-yl)-5′-(pyrrolidin-1-yl)-[2,3′-bipyridine]-6-carboxamide]"
4.47,5.21,"CN1CCN(c2cncc(-c3cccc(C(=O)Nc4cn(C)nc4-c4ccccn4)n3)c2)CC1 [Compound I-38, N-(1-methyl-3-(pyridin-2-yl)-1H-pyrazol-4-yl)-5′-(4-methylpiperazin-1-yl)-[2,3′-bipyridine]-6-carboxamide]"
5.84,5.88,"Cn1cc(NC(=O)c2cccc(-c3ccc(N)nc3)n2)c(-c2ccccn2)n1 [Compound I-43, 6′-amino-N-(1-methyl-3-(pyridin-2-yl)-1H-pyrazol-4-yl)-[2,3′-bipyridine]-6-carboxamide]"
5.75,6.46,"Cn1cc(NC(=O)c2cccc(-c3cnc4[nH]ccc4c3)n2)c(-c2ccccn2)n1 [Compound I-44, N-(1-methyl-3-(pyridin-2-yl)-1H-pyrazol-4-yl)-6-(1H-pyrrolo[2,3-b]pyridin-5-yl)picolinamide]"
5.95,5.35,"COc1ccc(-c2cccc(C(=O)Nc3cn(C)nc3-c3ccccn3)n2)cc1 [Compound I-52, 6-(4-methoxyphenyl)-N-(1-methyl-3-(pyridin-2-yl)-1H-pyrazol-4-yl)picolinamide]"
5.61,4.62,"CN(C)c1cccc(-c2cccc(C(=O)Nc3cn(C)nc3-c3ccccn3)n2)c1 [Compound I-59, 6-(3-(dimethylamino)phenyl)-N-(1-methyl-3-(pyridin-2-yl)-1H-pyrazol-4-yl)picolinamide]"
5.10,4.11,"Cn1cc(NC(=O)c2cccc(C3=CCCNC3)n2)c(-c2ccccn2)n1 [Compound I-65, N-(1-methyl-3-(pyridin-2-yl)-1H-pyrazol-4-yl)-1′,2′,5′,6′-tetrahydro-[2,3′-bipyridine]-6-carboxamide]"
6.08,6.19,"Cc1n[nH]cc1-c1cccc(C(=O)Nc2cn(C)nc2-c2ccccn2)n1 [Compound I-78, 6-(3-methyl-1H-pyrazol-4-yl)-N-(1-methyl-3-(pyridin-2-yl)-1H-pyrazol-4-yl)picolinamide]"
5.06,5.62,"CC(C)n1cc(NC(=O)c2cccc(-c3cn[nH]c3)n2)c(-c2ccccn2)n1 [Compound I-80, N-(1-isopropyl-3-(pyridin-2-yl)-1H-pyrazol-4-yl)-6-(1H-pyrazol-4-yl)picolinamide]"
5.19,5.56,"Cc1cncc(-c2cccc(C(=O)Nc3cn(C(C)C)nc3-c3ccccn3)n2)c1 [Compound I-81, N-(1-isopropyl-3-(pyridin-2-yl)-1H-pyrazol-4-yl)-5′-methyl-[2,3′-bipyridine]-6-carboxamide]"
